# Reference: patent US20160303095A1, “METHODS OF TREATING HEPATITIS B VIRUS” (Gilead Sciences, Inc., priority 2015, published 2016)
# Read-outs that look alike come from different tables or passages of the source.
# Tests used:
# HBV = experiment: PHH screening protocol: HBsAg and HBeAg levels by MSD ELISA; type: cell-based, Hepatitis B Virus; conditions: for EC50: Hepatitis B virus
# Procedure: HBV antiviral activity was assessed in primary human hepatocytes (PHH) in a 96-well format. PHH were (Life Technologies, Chicago, 11) plated on collagen coated tissue culture plates using Plating Media containing William's Medium E supplemented with 1% Penicillin/Streptomycin, 4 μg/mL human recombinant insulin, 2 mM glutamax, 15 mM Hepes, 1 μM dexamethasone and 5% fetal bovine serum (Life Technologies, Cat#A12176-01 Life Technologies, Chicago, Ill.). After a 4-hour incubation at 37° C., cells were switched to Maintenance Media (Cat#CM4000-A15564 Life Technologies, Chicago, Ill.) containing William's Medium E supplemented with 0.5% Penicillin/Streptomycin, 6.25 μg/mL human recombinant insulin, 6.25 μg/mL human transferrin, 6.25 ng/mL selenous acid, 1.25 mg/mL bovine serum albumin, 5.35 μg/mL linoleic acid, 2 mM glutamax, 15 mM Hepes, 0.1 μM dexamethasone, 2% fetal bovine serum, and 2% DMSO (Cat#D2650 Sigma, St. Louis, Mo.). On the next day, cells were infected with approximately 500 genome equivalent of selected HBV clinical isolates (21P (GTA), 32P (GTA), 91P (GTA), AD38 (GTD), 65P (GTD) or 30P (GTE); ProteoGenex, Culver City, Calif.) per cell in Maintenance Media supplemented with 4% PEG 8000 (Cat#V3011 Promega, Madison, Wis.). After 24 hour incubation cells were washed three times with William's Medium E and fed with fresh Maintenance Media. Small molecule inhibitors targeting KDMs were serially diluted in Maintenance Media and added to cells at 3 days post infection (p.i.). Media with compounds was replenished every 2-3 days. Media collected on various days was used for determination of HBsAg and HBeAg levels by MSD ELISA, and HBV RNA by qPCR. All data were converted into percentages of the untreated control and non-linear regression was performed to calculate EC50 or CC50 values.
# [1] = Alamar Blue cell viability assay; type: cell-based; conditions: human; D 28; PHH donor 8181; virus 21p
structure (smiles),measurement,setting,value
CCOC(=O)c1ccnc(CNCC(=O)N(CC)CCN(C)C)c1 [Example 8],EC50,"HBV; 336 h, read-out: HBeAg EC50, virus 30P, PHH donor 4239, d 14, compound removed after 14 days of treatment",4310 nM
same,EC50,"HBV; 336 h, read-out: HBeAg EC50, virus 30P, PHH donor 4239, d 17, compound removed after 14 days of treatment",141 nM
same,EC50,"HBV; 336 h, read-out: HBeAg EC50, virus 30P, PHH donor 4239, d 20, compound removed after 14 days of treatment",111 nM
same,EC50,"HBV; 336 h, read-out: HBeAg EC50, virus 30P, PHH donor 4239, d 25, compound removed after 14 days of treatment",15 nM
same,EC50,"HBV; 336 h, read-out: HBeAg EC50, virus 30P, PHH donor 4239, d 31, compound removed after 14 days of treatment",36 nM
same,EC50,"HBV; 336 h, read-out: HBeAg EC50, virus 30P, PHH donor 8130, d 14, compound removed after 14 days of treatment",318 nM
same,EC50,"HBV; 336 h, read-out: HBeAg EC50, virus 30P, PHH donor 8130, d 17, compound removed after 14 days of treatment",24 nM
same,EC50,"HBV; 336 h, read-out: HBeAg EC50, virus 30P, PHH donor 8130, d 20, compound removed after 14 days of treatment",20 nM
same,EC50,"HBV; 336 h, read-out: HBeAg EC50, virus 30P, PHH donor 8130, d 25, compound removed after 14 days of treatment",2 nM
same,EC50,"HBV; 336 h, read-out: HBeAg EC50, virus 30P, PHH donor 8130, d 31, compound removed after 14 days of treatment",2 nM
same,EC50,"HBV; 336 h, read-out: HBeAg EC50, virus AD38, PHH donor 4239, d 14, compound removed after 14 days of treatment",> 15000 nM
same,EC50,"HBV; 336 h, read-out: HBeAg EC50, virus AD38, PHH donor 4239, d 17, compound removed after 14 days of treatment",1660 nM
same,EC50,"HBV; 336 h, read-out: HBeAg EC50, virus AD38, PHH donor 4239, d 20, compound removed after 14 days of treatment",670 nM
same,EC50,"HBV; 336 h, read-out: HBeAg EC50, virus AD38, PHH donor 4239, d 25, compound removed after 14 days of treatment",110 nM
same,EC50,"HBV; 336 h, read-out: HBeAg EC50, virus AD38, PHH donor 4239, d 31, compound removed after 14 days of treatment",200 nM
same,EC50,"HBV; 336 h, read-out: HBeAg EC50, virus AD38, PHH donor 8130, d 14, compound removed after 14 days of treatment",2420 nM
same,EC50,"HBV; 336 h, read-out: HBeAg EC50, virus AD38, PHH donor 8130, d 17, compound removed after 14 days of treatment",840 nM
same,EC50,"HBV; 336 h, read-out: HBeAg EC50, virus AD38, PHH donor 8130, d 20, compound removed after 14 days of treatment",190 nM
same,EC50,"HBV; 336 h, read-out: HBeAg EC50, virus AD38, PHH donor 8130, d 25, compound removed after 14 days of treatment",30 nM
same,EC50,"HBV; 336 h, read-out: HBeAg EC50, virus AD38, PHH donor 8130, d 31, compound removed after 14 days of treatment",10 nM
same,EC50,"HBV; 336 h, read-out: HBsAg EC50, virus 30P, PHH donor 4239, d 14, compound removed after 14 days of treatment",> 15000 nM
same,EC50,"HBV; 336 h, read-out: HBsAg EC50, virus 30P, PHH donor 4239, d 17, compound removed after 14 days of treatment",207 nM
same,EC50,"HBV; 336 h, read-out: HBsAg EC50, virus 30P, PHH donor 4239, d 20, compound removed after 14 days of treatment",26 nM
same,EC50,"HBV; 336 h, read-out: HBsAg EC50, virus 30P, PHH donor 4239, d 25, compound removed after 14 days of treatment",28 nM
same,EC50,"HBV; 336 h, read-out: HBsAg EC50, virus 30P, PHH donor 4239, d 31, compound removed after 14 days of treatment",32 nM
same,EC50,"HBV; 336 h, read-out: HBsAg EC50, virus 30P, PHH donor 8130, d 14, compound removed after 14 days of treatment",1 nM
same,EC50,"HBV; 336 h, read-out: HBsAg EC50, virus 30P, PHH donor 8130, d 17, compound removed after 14 days of treatment",19 nM
same,EC50,"HBV; 336 h, read-out: HBsAg EC50, virus 30P, PHH donor 8130, d 20, compound removed after 14 days of treatment",3 nM
same,EC50,"HBV; 336 h, read-out: HBsAg EC50, virus 30P, PHH donor 8130, d 25, compound removed after 14 days of treatment",2 nM
same,EC50,"HBV; 336 h, read-out: HBsAg EC50, virus 30P, PHH donor 8130, d 31, compound removed after 14 days of treatment",2 nM
same,EC50,"HBV; 336 h, read-out: HBsAg EC50, virus AD38, PHH donor 4239, d 14, compound removed after 14 days of treatment",6300 nM
same,EC50,"HBV; 336 h, read-out: HBsAg EC50, virus AD38, PHH donor 4239, d 17, compound removed after 14 days of treatment",842 nM
same,EC50,"HBV; 336 h, read-out: HBsAg EC50, virus AD38, PHH donor 4239, d 20, compound removed after 14 days of treatment",300 nM
same,EC50,"HBV; 336 h, read-out: HBsAg EC50, virus AD38, PHH donor 4239, d 25, compound removed after 14 days of treatment",372 nM
same,EC50,"HBV; 336 h, read-out: HBsAg EC50, virus AD38, PHH donor 4239, d 31, compound removed after 14 days of treatment",152 nM
same,EC50,"HBV; 336 h, read-out: HBsAg EC50, virus AD38, PHH donor 8130, d 14, compound removed after 14 days of treatment",2010 nM
same,EC50,"HBV; 336 h, read-out: HBsAg EC50, virus AD38, PHH donor 8130, d 17, compound removed after 14 days of treatment",920 nM
same,EC50,"HBV; 336 h, read-out: HBsAg EC50, virus AD38, PHH donor 8130, d 20, compound removed after 14 days of treatment",81 nM
same,EC50,"HBV; 336 h, read-out: HBsAg EC50, virus AD38, PHH donor 8130, d 25, compound removed after 14 days of treatment",80 nM
same,EC50,"HBV; 336 h, read-out: HBsAg EC50, virus AD38, PHH donor 8130, d 31, compound removed after 14 days of treatment",12 nM
same,EC50,"HBV; 408 h, read-out: HBsAg EC50, virus 21P (GTA), PHH 4239, day 17 p.i.",700 nM
same,EC50,"HBV; 408 h, read-out: HBsAg EC50, virus 21P (GTA), PHH 8130, day 17 p.i.",200 nM
same,EC50,"HBV; 408 h, read-out: HBsAg EC50, virus 21P (GTA), PHH 8181, day 17 p.i.",20 nM
same,EC50,"HBV; 408 h, read-out: HBsAg EC50, virus 30P (GTE), PHH 4239, day 17 p.i.",300 nM
same,EC50,"HBV; 408 h, read-out: HBsAg EC50, virus 30P (GTE), PHH 8130, day 17 p.i.",200 nM
same,EC50,"HBV; 408 h, read-out: HBsAg EC50, virus 30P (GTE), PHH 8181, day 17 p.i.",< 5 nM
same,EC50,"HBV; 408 h, read-out: HBsAg EC50, virus 32P (GTA), PHH 4239, day 17 p.i.",30 nM
same,EC50,"HBV; 408 h, read-out: HBsAg EC50, virus 32P (GTA), PHH 8130, day 17 p.i.",80 nM
same,EC50,"HBV; 408 h, read-out: HBsAg EC50, virus 32P (GTA), PHH 8181, day 17 p.i.",< 2 nM
same,EC50,"HBV; 408 h, read-out: HBsAg EC50, virus 65P (GTD), PHH 4239, day 17 p.i.",300 nM
same,EC50,"HBV; 408 h, read-out: HBsAg EC50, virus 65P (GTD), PHH 8130, day 17 p.i.",2400 nM
same,EC50,"HBV; 408 h, read-out: HBsAg EC50, virus 65P (GTD), PHH 8181, day 17 p.i.",< 2 nM
same,EC50,"HBV; 408 h, read-out: HBsAg EC50, virus 91P (GTA), PHH 4239, day 17 p.i.",60 nM
same,EC50,"HBV; 408 h, read-out: HBsAg EC50, virus 91P (GTA), PHH 8130, day 17 p.i.",30 nM
same,EC50,"HBV; 408 h, read-out: HBsAg EC50, virus 91P (GTA), PHH 8181, day 17 p.i.",< 6 nM
same,EC50,"HBV; 408 h, read-out: HBsAg EC50, virus AD38 (GTD), PHH 4239, day 17 p.i.",2000 nM
same,EC50,"HBV; 408 h, read-out: HBsAg EC50, virus AD38 (GTD), PHH 8130, day 17 p.i.",1400 nM
same,EC50,"HBV; 408 h, read-out: HBsAg EC50, virus AD38 (GTD), PHH 8181, day 17 p.i.",< 5 nM
same,EC50,"HBV; read-out: EC50 values (HBsAg), PHH donors 4239 and 8130, across patient viruses",30 to 2400 nM
same,EC50,"HBV; read-out: HBeAg EC50, D 8, PHH donor 8181, virus 21p",> 50000 nM
same,EC50,"HBV; read-out: HBeAg EC50, D 13, PHH donor 8181, virus 21p",160 nM
same,EC50,"HBV; read-out: HBeAg EC50, D 17, PHH donor 8181, virus 21p",< 20 nM
same,EC50,"HBV; read-out: HBeAg EC50, D 22, PHH donor 8181, virus 21p",< 20 nM
same,EC50,"HBV; read-out: HBeAg EC50, D 27, PHH donor 8181, virus 21p",< 20 nM
same,EC50,"HBV; read-out: HBeAg EC50, D 31, PHH donor 8181, virus 21p",< 20 nM
same,EC50,"HBV; read-out: HBeAg EC50, HBV-infected PHH",188 nM
same,EC50,"HBV; read-out: HBsAg EC50, D 8, PHH donor 8181, virus 21p",> 50000 nM
same,EC50,"HBV; read-out: HBsAg EC50, D 13, PHH donor 8181, virus 21p",150 nM
same,EC50,"HBV; read-out: HBsAg EC50, D 17, PHH donor 8181, virus 21p",< 20 nM
same,EC50,"HBV; read-out: HBsAg EC50, D 22, PHH donor 8181, virus 21p",< 20 nM
same,EC50,"HBV; read-out: HBsAg EC50, D 27, PHH donor 8181, virus 21p",< 20 nM
same,EC50,"HBV; read-out: HBsAg EC50, D 31, PHH donor 8181, virus 21p",< 20 nM
same,EC50,"HBV; read-out: HBsAg EC50, HBV-infected PHH",67 nM
same,inhibition of HBV HBsAg and HBeAg secretion compared to untreated cells,HBV; PHH donor 8181,more than 10 fold
same,time dependency of anti HBV activity,HBV; PHH donor 8181 infected with patient virus 21p (GTA),time dependent
same,CC50 at 28 day,[1],20000 nM
